Test system: 633275-114-R-J1-PDC complex spheroids, viability
Assay: Anticancer human tumor 633275-114-R-J1-PDC patient-derived endometrial adenocarcinoma cell line growth inhibition [GQUAD]
Conditions: for IC50: curve of first compound; for viability, T/C: stronger effect = lower value
Method in brief: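 Multi-cell-type spheroids of tumor cells with HUVEC and mesenchymal stem cells, treated with drug combinations. Concentrations descend in half-log steps from near clinical Cmax, or from 10 microM where Cmax is unknown; viability read-out.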

[1] = second compound 0.0316 µM, first compound 0.0316 µM
[2] = second compound 0.0316 µM, first compound 0.316 µM
[3] = second compound 0.1 µM, first compound 0.0316 µM
[4] = second compound 0.1 µM, first compound 0.316 µM
[5] = second compound 0.316 µM, first compound 0.0316 µM
[6] = second compound 0.316 µM, first compound 0.316 µM
[7] = second compound 1 µM, first compound 0.0316 µM
[8] = second compound 1 µM, first compound 0.316 µM
[9] = second compound 3.16 µM, first compound 0.0316 µM
[10] = second compound 3.16 µM, first compound 0.316 µM
[11] = second compound 10 µM, first compound 0.0316 µM
[12] = second compound 10 µM, first compound 0.316 µM
[13] = second compound 0.0316 µM, first compound 0.000999 µM
[14] = second compound 0.0316 µM, first compound 0.00316 µM
[15] = second compound 0.0316 µM, first compound 0.00999 µM
[16] = second compound 0.0316 µM, first compound 0.0999 µM
[17] = second compound 0.1 µM, first compound 0.000999 µM
[18] = second compound 0.1 µM, first compound 0.00316 µM
[19] = second compound 0.1 µM, first compound 0.00999 µM
[20] = second compound 0.1 µM, first compound 0.0999 µM
[21] = second compound 0.316 µM, first compound 0.000999 µM
[22] = second compound 0.316 µM, first compound 0.00316 µM
[23] = second compound 0.316 µM, first compound 0.00999 µM
[24] = second compound 0.316 µM, first compound 0.0999 µM
[25] = second compound 1 µM, first compound 0.000999 µM
[26] = second compound 1 µM, first compound 0.00316 µM
[27] = second compound 1 µM, first compound 0.00999 µM
[28] = second compound 1 µM, first compound 0.0999 µM
[29] = second compound 3.16 µM, first compound 0.000999 µM
[30] = second compound 3.16 µM, first compound 0.00316 µM
[31] = second compound 3.16 µM, first compound 0.00999 µM
[32] = second compound 3.16 µM, first compound 0.0999 µM
[33] = second compound 10 µM, first compound 0.000999 µM
[34] = second compound 10 µM, first compound 0.00316 µM
[35] = second compound 10 µM, first compound 0.00999 µM
[36] = second compound 10 µM, first compound 0.0999 µM
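Also: spheroids exposed to the agents for seven days.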
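For viability, T/C in this document: percent of DMSO vehicle control viability which is 100%.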

With `C#Cc1c(F)ccc2cc(O)cc(-c3ncc4c(N5CC6CCC(C5)N6)nc(OCC56CCCN5CC(F)C6)nc4c3F)c12` (stereo unspecified) + Cc1cnc(CNC(=O)c2c(=O)c3ccc(N4CCCN(C)CC4)nc3n3c2sc2ccccc23)cn1 the IC50 (second compound 0.0316 µM) was 3910 nM, the IC50 (second compound 0.1 µM) was 157 nM and the IC50 (second compound 0.316 µM) was less than 31.6 nM. It also gave an IC50 (second compound 1 µM) of less than 31.6 nM, an IC50 (second compound 3.16 µM) of less than 31.6 nM and an IC50 (second compound 10 µM) of less than 31.6 nM. For the same compound, the viability, T/C [1] was 68.9%, the viability, T/C (second compound 0.0316 µM, first compound 0.1 µM) was 72.5% and the viability, T/C [2] was 65.2%. The viability, T/C (second compound 0.0316 µM, first compound 1 µM) was 58.7%, the viability, T/C (second compound 0.0316 µM, first compound 3.16 µM) was 47.1% and the viability, T/C (second compound 0.0316 µM, first compound 10 µM) was 45.6%. The viability, T/C [3] was 52.3%, the viability, T/C (second compound 0.1 µM, first compound 0.1 µM) was 49.7% and the viability, T/C [4] was 52.1%. The viability, T/C (second compound 0.1 µM, first compound 1 µM) was 44.7%, the viability, T/C (second compound 0.1 µM, first compound 3.16 µM) was 39.8% and the viability, T/C (second compound 0.1 µM, first compound 10 µM) was 38.9%. It also gave a viability, T/C [5] of 47.1%, a viability, T/C (second compound 0.316 µM, first compound 0.1 µM) of 49.8% and a viability, T/C [6] of 43.7%. For the same compound, the viability, T/C (second compound 0.316 µM, first compound 1 µM) was 36.4%, the viability, T/C (second compound 0.316 µM, first compound 3.16 µM) was 37.2% and the viability, T/C (second compound 0.316 µM, first compound 10 µM) was 26.8%. For the same compound, the viability, T/C [7] was 41.7%, the viability, T/C (second compound 1 µM, first compound 0.1 µM) was 42.1% and the viability, T/C [8] was 42.1%. For the same compound, the viability, T/C (second compound 1 µM, first compound 1 µM) was 36.3%, the viability, T/C (second compound 1 µM, first compound 3.16 µM) was 30.9% and the viability, T/C (second compound 1 µM, first compound 10 µM) was 26.8%. For the same compound, the viability, T/C [9] was 38.4%, the viability, T/C (second compound 3.16 µM, first compound 0.1 µM) was 36.2% and the viability, T/C [10] was 34.4%. It also gave a viability, T/C (second compound 3.16 µM, first compound 1 µM) of 31.5%, a viability, T/C (second compound 3.16 µM, first compound 3.16 µM) of 27.7% and a viability, T/C (second compound 3.16 µM, first compound 10 µM) of 24.3%. The viability, T/C [11] was 31.3%, the viability, T/C (second compound 10 µM, first compound 0.1 µM) was 32.9% and the viability, T/C [12] was 26.5%. It also gave a viability, T/C (second compound 10 µM, first compound 1 µM) of 27.2%, a viability, T/C (second compound 10 µM, first compound 3.16 µM) of 23.7% and a viability, T/C (second compound 10 µM, first compound 10 µM) of 23.1%.

With `CC[C@@]1(O)C(=O)OCc2c1cc1n(c2=O)Cc2cc3c(CN(C)C)c(O)ccc3nc2-1` + Cc1cnc(CNC(=O)c2c(=O)c3ccc(N4CCCN(C)CC4)nc3n3c2sc2ccccc23)cn1 the IC50 (second compound 0.0316 µM) was 32.8 nM, the IC50 (second compound 0.1 µM) was 1.27 nM and the IC50 (second compound 0.316 µM) was 1.65 nM. The IC50 (second compound 1 µM) was less than 0.999 nM, the IC50 (second compound 3.16 µM) was less than 0.999 nM and the IC50 (second compound 10 µM) was less than 0.999 nM. It also gave a viability, T/C [13] of 63.9%, a viability, T/C [14] of 62.7% and a viability, T/C [15] of 53.8%. The viability, T/C [1] was 54.5%, the viability, T/C [16] was 38.4% and the viability, T/C [2] was 32.8%. The viability, T/C [17] was 50.7%, the viability, T/C [18] was 47.6% and the viability, T/C [19] was 47.5%. The viability, T/C [3] was 42.6%, the viability, T/C [20] was 41% and the viability, T/C [4] was 36.5%. For the same compound, the viability, T/C [21] was 49.7%, the viability, T/C [22] was 49.1% and the viability, T/C [23] was 48.5%. The viability, T/C [5] was 40.1%, the viability, T/C [24] was 34.7% and the viability, T/C [6] was 33.4%. The viability, T/C [25] was 40%, the viability, T/C [26] was 40.6% and the viability, T/C [27] was 39.1%. The viability, T/C [7] was 40.5%, the viability, T/C [28] was 39.9% and the viability, T/C [8] was 35.2%. For the same compound, the viability, T/C [29] was 38.4%, the viability, T/C [30] was 37.9% and the viability, T/C [31] was 37.7%. The viability, T/C [9] was 33.1%, the viability, T/C [32] was 35.9% and the viability, T/C [10] was 29.9%. The viability, T/C [33] was 31.7%, the viability, T/C [34] was 35.8% and the viability, T/C [35] was 29.8%. The viability, T/C [11] was 31.9%, the viability, T/C [36] was 32.7% and the viability, T/C [12] was 28.4%.

For `CCc1c2c(nc3ccc(O)cc13)-c1cc3c(c(=O)n1C2)COC(=O)[C@]3(O)CC` + Cc1cnc(CNC(=O)c2c(=O)c3ccc(N4CCCN(C)CC4)nc3n3c2sc2ccccc23)cn1, the IC50 (second compound 0.0316 µM) was 1.6 nM, the IC50 (second compound 0.1 µM) was less than 0.999 nM and the IC50 (second compound 0.316 µM) was less than 0.999 nM. For the same compound, the IC50 (second compound 1 µM) was less than 0.999 nM, the IC50 (second compound 3.16 µM) was less than 0.999 nM and the IC50 (second compound 10 µM) was less than 0.999 nM. It also gave a viability, T/C [13] of 57.4%, a viability, T/C [14] of 38.5% and a viability, T/C [15] of 32.5%. It also gave a viability, T/C [1] of 32.5%, a viability, T/C [16] of 26.6% and a viability, T/C [2] of 24.4%. The viability, T/C [17] was 46.3%, the viability, T/C [18] was 36.2% and the viability, T/C [19] was 35.4%. For the same compound, the viability, T/C [3] was 32.4%, the viability, T/C [20] was 27.2% and the viability, T/C [4] was 25.2%. The viability, T/C [21] was 42.9%, the viability, T/C [22] was 37.9% and the viability, T/C [23] was 33.9%. It also gave a viability, T/C [5] of 31.2%, a viability, T/C [24] of 30% and a viability, T/C [6] of 26.8%. It also gave a viability, T/C [25] of 40.4%, a viability, T/C [26] of 35.3% and a viability, T/C [27] of 35.9%. The viability, T/C [7] was 30.2%, the viability, T/C [28] was 27.8% and the viability, T/C [8] was 18.7%. The viability, T/C [29] was 34%, the viability, T/C [30] was 31.9% and the viability, T/C [31] was 28.3%. It also gave a viability, T/C [9] of 27%, a viability, T/C [32] of 24.9% and a viability, T/C [10] of 13.4%. The viability, T/C [33] was 30.3%, the viability, T/C [34] was 28% and the viability, T/C [35] was 26.4%. For the same compound, the viability, T/C [11] was 27.8%, the viability, T/C [36] was 21.1% and the viability, T/C [12] was 0.26%.
